In general, IC50 refers to the point on the concentration scale where inhibition reaches its midpoint. What is called EC50 is the concentration needed to bring the measured effect to its halfway point. As a reminder, the share remaining is the share of the starting amount still present when the sample was taken.

From ChEMBL document CHEMBL6071163, “The multicomponent Passerini reaction as a means of accessing diversity in structure, activity and properties: Soft and hard vanilloid/cannabinoid modulators” (Eur J Med Chem, 2024) come the findings set out here.

Data set [1] has as its target T1, Cannabinoid receptor 2 (Homo sapiens, UniProt P34972). Put plainly: Antagonist activity at recombinant human CB2 receptor expressed in HEK293-CNG cells assessed as cAMP accumulation incubated for 60 mins in presence of forskolin by fluorescence based analysis. In kind it is functional, cell-based. On the technique in general: cAMP levels reflect the balance of adenylyl cyclase and phosphodiesterase activity.

Data set [2] deals with T1, Cannabinoid receptor 2. Kind of data set: Agonist activity at recombinant human CB2 receptor expressed in HEK293-CNG cells assessed as reduction in forskolin-induced cAMP accumulation incubated for 60 mins by fluorescence based analysis. In kind it is functional, cell-based.
The target of data set [3] is T2, Transient receptor potential cation channel subfamily V member 1 (Homo sapiens, UniProt Q8NER1). Kind of data set: Agonist activity at recombinant human TRPV1 transfected in HEK293 cells assessed as increase in intracellular Ca2+ influx by Fluo-4 NW Ca2+ dye based microfluorometric calcium flux assay. A general note: Calcium flux is commonly read through the fluorescence of an indicator in the cells.
T2 sequence (Q8NER1 whole entry): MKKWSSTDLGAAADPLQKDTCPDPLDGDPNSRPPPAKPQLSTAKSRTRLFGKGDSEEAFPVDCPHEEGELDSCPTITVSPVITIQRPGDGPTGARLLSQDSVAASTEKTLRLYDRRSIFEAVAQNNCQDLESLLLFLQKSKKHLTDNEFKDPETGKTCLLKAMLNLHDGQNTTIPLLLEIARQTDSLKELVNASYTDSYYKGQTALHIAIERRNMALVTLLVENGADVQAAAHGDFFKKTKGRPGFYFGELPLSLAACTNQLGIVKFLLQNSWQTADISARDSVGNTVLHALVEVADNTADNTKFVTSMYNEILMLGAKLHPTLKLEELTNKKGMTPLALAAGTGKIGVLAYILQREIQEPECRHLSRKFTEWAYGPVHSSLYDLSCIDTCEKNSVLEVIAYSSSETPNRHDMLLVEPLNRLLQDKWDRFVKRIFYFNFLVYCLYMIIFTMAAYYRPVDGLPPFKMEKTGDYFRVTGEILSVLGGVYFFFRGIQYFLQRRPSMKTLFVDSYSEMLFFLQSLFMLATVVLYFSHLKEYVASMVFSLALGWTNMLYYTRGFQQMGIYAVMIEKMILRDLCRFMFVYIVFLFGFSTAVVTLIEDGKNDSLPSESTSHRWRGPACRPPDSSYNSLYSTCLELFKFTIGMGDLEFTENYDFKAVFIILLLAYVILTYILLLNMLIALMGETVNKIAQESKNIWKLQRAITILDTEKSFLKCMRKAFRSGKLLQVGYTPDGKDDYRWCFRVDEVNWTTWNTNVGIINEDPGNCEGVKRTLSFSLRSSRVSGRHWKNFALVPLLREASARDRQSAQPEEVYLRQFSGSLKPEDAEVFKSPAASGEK

The next data set has as its target Cannabinoid receptor 1 (Homo sapiens, UniProt P21554). Put plainly: Agonist activity at recombinant human CB1 receptor expressed in HEK293-CNG cells assessed as reduction in forskolin-induced cAMP accumulation incubated for 60 mins by fluorescence based analysis. In kind it is functional, cell-based.
In data set [4] the target is T2, Transient receptor potential cation channel subfamily V member 1.
The nature of data set [5]: Metabolic stability in human Keratinocytes assessed as parent compound remaining at 5 uM incubated for 120 mins.
A short description of data set [6]: Metabolic stability in human liver S9 fraction assessed as parent compound remaining at 5 uM incubated for 60 mins.
Data set [7] in a line: Metabolic stability in human Fibroblast assessed as parent compound remaining at 5 uM incubated for 120 mins. The note with it: fibroblasts.
A short description of data set [8]: Metabolic stability in human skin S9 fraction assessed as parent compound remaining at 5 uM incubated for 60 mins.
Data set [9] can be described thus: Metabolic stability in human plasma assessed as parent compound remaining at 50 uM incubated for 60 mins.
Data set [10] is described as follows: Metabolic stability in human HaCaT cells assessed as parent compound remaining at 5 uM incubated for 120 mins.
The target of data set [11] is T2, Transient receptor potential cation channel subfamily V member 1. Put plainly: Agonist activity at human TRPV1 expressed in HEK293 cells assessed as induction of current by patch clamp assay. For orientation: Patch clamp records ionic current or voltage across a cell membrane.

Chain of Cannabinoid receptor 1 (P21554 whole entry): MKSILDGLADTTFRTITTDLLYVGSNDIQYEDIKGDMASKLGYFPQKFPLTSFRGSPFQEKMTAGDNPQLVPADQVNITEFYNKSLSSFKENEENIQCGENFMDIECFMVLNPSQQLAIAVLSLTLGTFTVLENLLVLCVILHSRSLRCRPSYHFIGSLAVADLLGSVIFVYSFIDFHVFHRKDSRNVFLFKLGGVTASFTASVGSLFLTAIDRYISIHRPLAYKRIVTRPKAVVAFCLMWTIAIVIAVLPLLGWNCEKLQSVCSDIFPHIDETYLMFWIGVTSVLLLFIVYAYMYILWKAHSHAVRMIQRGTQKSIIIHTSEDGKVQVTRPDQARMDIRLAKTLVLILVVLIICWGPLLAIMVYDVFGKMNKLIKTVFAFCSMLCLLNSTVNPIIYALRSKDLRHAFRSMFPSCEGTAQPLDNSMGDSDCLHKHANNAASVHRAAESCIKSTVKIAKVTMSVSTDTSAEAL
T1 sequence (P34972 whole entry): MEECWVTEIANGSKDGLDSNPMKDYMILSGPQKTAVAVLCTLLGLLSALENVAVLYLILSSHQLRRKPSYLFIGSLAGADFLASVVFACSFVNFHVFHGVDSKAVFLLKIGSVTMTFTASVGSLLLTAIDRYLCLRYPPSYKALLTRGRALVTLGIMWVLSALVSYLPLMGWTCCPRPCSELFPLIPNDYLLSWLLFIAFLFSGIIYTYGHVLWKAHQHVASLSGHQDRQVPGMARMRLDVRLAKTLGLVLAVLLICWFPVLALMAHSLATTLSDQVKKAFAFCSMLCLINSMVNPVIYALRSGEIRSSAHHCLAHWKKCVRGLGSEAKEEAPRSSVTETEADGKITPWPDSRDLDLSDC

Turning to `COc1ccc(C(=O)c2c(C)n(CCN3CCOCC3)c3cc(I)ccc23)cc1`, on Cannabinoid receptor 2 [1], the half-inhibitory concentration (IC50) worked out at 0.03 µM.

As to `O=C(CO)NCCO`, the concentration for a half-maximal effect (EC50) (at Cannabinoid receptor 2 [2]; in data set [3]; on Cannabinoid receptor 1) was above 100 µM in each case.

Regarding `CCCCCC[C@H](C/C=C\CCCCCCCC(=O)OCC(=O)NCCc1cc(O)c(O)cc1I)OC(=O)Cc1ccccc1`, the concentration for half-maximal inhibition (IC50) in data set [4] was above 100 µM.

As for `C=CCNC(=O)COC(=O)CCCCCCCCCCC`, the half-maximal effective concentration (EC50) in data set [3] turned out to be 11.4 µM.

As for `C=CCNC(=O)COC(=O)CCCCCCC/C=C\C[C@@H](CCCCCC)OC(=O)Cc1ccccc1`, the concentration giving a half-maximal response (EC50) in data set [3] was 15.2 µM.

Take `CCCCCCCC/C=C\CCCCCCCC(=O)OCC(=O)NC1CC1`: the EC50 in [3] came to 0.7 µM; on Cannabinoid receptor 1, 27.9 µM.

On to `O=C(CO)NCCc1cc(O)c(O)cc1I`, for which, in data set [4], the IC50 was above 100 µM. In addition, the concentration for a half-maximal effect (EC50) at Cannabinoid receptor 2 [2] and on Cannabinoid receptor 1 was above 100 µM in each case.

As to `C=CCNC(=O)CO`, the EC50 (on Cannabinoid receptor 2 [2]; in data set [3]; on Cannabinoid receptor 1) was above 100 µM each time.

Consider `CCCCC/C=C\C/C=C\C/C=C\C/C=C\CCCC(=O)OCC(=O)NCCO`, for which the share remaining at 2 h, 5 µM in data set [5] is 97%; in [7], 73%; in [10], above 99%. Also, the share remaining at 1 h, 5 µM was found to be 24% in data set [6] and 76% in data set [8]. In addition, the concentration giving a half-maximal response (EC50) in [3] is 2.1 µM; on Cannabinoid receptor 1, 30.6 µM. Besides, in data set [9], the fraction remaining at 1 h, 50 µM was above 99%.

For `CC(C)=CCC/C(C)=C/C(=O)OCC(=O)NC1CC1`, the concentration for a half-maximal effect (EC50) in data set [3] was found to be 33.1 µM.

Regarding `CCCCCC[C@H](C/C=C\CCCCCCCC(=O)OCC(=O)NC1CC1)OC(=O)Cc1ccccc1`, the EC50 in [3] is 2.6 µM.

Turning to `CCCCCCCCCCCC(=O)OCC(=O)NC1CC1`, the amount remaining at 2 h, 5 µM was 99% in data set [5], 62% in [7] and 94% in data set [10]. For the same compound, the share remaining at 1 h, 5 µM in [6] was found to be 1%; in [8], 69%. The concentration for a half-maximal effect (EC50) was found to be 87.6 µM at Cannabinoid receptor 2 [2] and 1.7 µM in [3]. In [9], the fraction remaining at 1 h, 50 µM was 80%.

With `CC(C)=CCC/C(C)=C/C(=O)OCC(=O)NCCO`, the share remaining at 2 h, 5 µM came to 96% in [5], 93% in data set [7] and 98% in [10]. Also, the amount remaining at 1 h, 5 µM worked out at 89% in data set [6] and 96% in data set [8]. In addition, the results for the EC50 (on Cannabinoid receptor 2 [2]; in [3]; in [11]) were 37.8 µM, 26.8 µM and 47.5 µM, respectively. The share remaining at 1 h, 50 µM in data set [9] was found to be 89%.

As to `CC(C)=CCC/C(C)=C/C(=O)OCC(=O)NCCc1cc(O)c(O)cc1I`, the EC50 at Cannabinoid receptor 2 [2] is 36.8 µM; on Cannabinoid receptor 1, 41.4 µM.

For the compound `C=CCNC(=O)COC(=O)CC/C(C)=C/CC/C(C)=C/CC/C=C(\C)CC/C=C(\C)CCC=C(C)C`, the EC50 in [3] amounted to 36.4 µM.

Compound `CCCCCCCC(=O)OCC(=O)NCCc1cc(O)c(O)cc1I` displayed a 50% inhibitory concentration (IC50) in data set [4] of 54.2 µM. Moreover, the amount remaining at 2 h, 5 µM in data set [5] is 85%; in [7], 69%; in data set [10], 73%. Besides, the amount remaining at 1 h, 5 µM came to 1% in [6] and 27% in data set [8]. The EC50 at Cannabinoid receptor 2 [2] was above 100 µM. In [9], the amount remaining at 1 h, 50 µM is 13%.

With `CCCCCCCC(=O)OCC(=O)NCCc1ccc(O)c(O)c1`, the EC50 was 10.6 µM in [3] and 13.9 µM at Cannabinoid receptor 1.

Consider `CC(C)=CCC/C(C)=C/C(=O)OCC(=O)NCCc1ccc(O)c(O)c1`, for which the results for the EC50 on Cannabinoid receptor 2 [2] and at Cannabinoid receptor 1 were 89.9 µM and 118 µM, respectively.

As to `O=C(CO)NCCc1ccc(O)c(O)c1`, the EC50 at Cannabinoid receptor 2 [2] and at Cannabinoid receptor 1 was above 100 µM throughout.

For `CCCCCC[C@H](C/C=C\CCCCCCCC(=O)OCC(=O)NCCO)OC(=O)Cc1ccccc1`, in data set [3], the EC50 stood at 3.7 µM.

As for `C=CCNC(=O)COC(=O)CCCCCCC/C=C\CCCCCCCC`, the EC50 in data set [3] was found to be 4.7 µM.

In the case of `CCCCC/C=C\C/C=C\C/C=C\C/C=C\CCCC(=O)OCC(=O)NCCc1ccc(O)c(O)c1`, in data set [3], the EC50 came out at 1 µM.

Consider `CCCCCCCCCCCC(=O)OCC(=O)NCCc1cc(O)c(O)cc1I`, for which, in data set [4], half-maximal inhibition (IC50) required 64.9 µM.

`CCCCC/C=C\C/C=C\C/C=C\C/C=C\CCCC(=O)OCC(=O)NC1CC1`: the EC50 at Cannabinoid receptor 1 was 13.8 µM.

Turning to `CC(C)=CCC/C(C)=C/CC/C(C)=C/CC/C=C(\C)CC/C=C(\C)CCC(=O)OCC(=O)NC1CC1`, the results for the EC50 (in data set [3]; on Cannabinoid receptor 1) were 13.4 µM and 196 µM, respectively.

Regarding `O=C(CO)NC1CC1`, the EC50 (on Cannabinoid receptor 2 [2]; in data set [3]; at Cannabinoid receptor 1) was above 100 µM in each case.

Consider `C=CCNC(=O)COC(=O)CCC/C=C\C/C=C\C/C=C\C/C=C\CCCCC`, for which the values for the concentration for a half-maximal effect (EC50) (at Cannabinoid receptor 2 [2]; in data set [3]; at Cannabinoid receptor 1) were 62 µM, 21.8 µM and 16.6 µM, respectively.

`CCCCCC[C@H](C/C=C\CCCCCCCC(=O)OCC(=O)NCCc1ccc(O)c(O)c1)OC(=O)Cc1ccccc1`: the 50% effective concentration (EC50) in [3] stood at 3.1 µM.

`C=CCNC(=O)COC(=O)CCCCCCC`: in data set [3], the 50% effective concentration (EC50) came out at 23.3 µM.
